Tests used:
cortical neurons [1] = experiment: Total TG and PC levels in cortical neurons by enzymatic hydrolysis assays; format: cell-based, mouse; conditions: lipid hydrolysis assay, DGAT1 or DGAT2 depletion
Description: (§1) Cortical neurons were cultured as previously described. In short, the cortex from E18 C57/B6 mice of both genders was dissected and digested in 0.5 mg/mL papain for 30 min. Then, 100 μL fetal bovine serum (HyClone) was added to inactivate papain. The cells were then placed into Neurobasal medium (Gibco), supplemented with B27 (Gibco) and 1% penicillin-streptomycin (10,000 U/mL; Gibco). AraC (100 nM; Sigma) was used to inhibit glial proliferation in DIV1-DIV3. After 10 days of culture with AAV-scramble, AAV-shLipin1, AAV-shDgat1 or AAV-shDgat2, cells were harvested, and then TG or PC levels were measured according to the manufacturer's protocol (ab65336 and ab83377).
Because UPLC-MS might not identify all lipid molecular species, the total TG and PC levels were further measured by performing enzymatic hydrolysis assays. TG levels were decreased by 40% after Lipin1 depletion (FIG. 3E). […] Because injury triggers Lipin1 elevation in RGCs, the data on lipid changes after Lipin1 KD indicate that axotomy may program lipid metabolism to increase triglyceride and decrease PL production. This injury-triggered bias in lipid synthesis may contribute to the declined axon growth in CNS neurons. By depleting Lipin1, injured neurons may redirect two arms of the branch and shift lipid storage to membrane lipid production for axon regrowth.

adult DRG neurons = experiment: Axon elongation of replated adult DRG neurons after shRNA/AAV treatment (Tuj1 staining, longest neurite); format: cell-based, mouse; conditions: for effect on axon regrowth / axon growth of DRG neurons: shRNA in WT DRG neurons vs control shRNA
[2] = test system: sensory axons in the sciatic nerve; experiment: Sciatic nerve crush, sensory axon regeneration (SCG10 staining); format: in vivo, mouse; conditions: WT mice, i.p. KLH-45 30 mg/kg/day, Atglistatin 40 mg/kg/day, 5 days before and 2 days after injury; two days regrowth
Description: KLH-45 (30 mg/kg/day) or Atglistatin (40 mg/kg/day) were delivered by intraperitoneal injection for 5 consecutive days before injury and 2 days after injury. The same dosage of DMSO injection was used as a control treatment. Sciatic nerve injury was performed as previously described. Briefly, after an incision was made on the skin at the middle thigh level, muscle was gently dissected to expose the sciatic nerve. Then, the sciatic nerve was crushed for 10 s by forceps (Dumont #2; Fine Science Tools). For the sham group, the sciatic nerve was only exposed but not crushed.
Sciatic nerve sections with SCG10 staining were used to quantify the regeneration index. A column with a width of 50 pixels was drawn at different distances from the lesion center, and the average intensity of SCG10 staining was measured using ImageJ. The distance between the lesion center and the column with half the intensity of the lesion center was considered as the regeneration index.
Consistently, Ddhd2 KD in isolated DRG neurons suppressed axon elongation in culture, and as a positive control Lipin1 KD increased the axon length. Then, vehicle KLH-45, or KLH-45 combined with Atglistatin was systematically administered into WT mice. The sciatic nerve was then crushed, and the sensory axons were allowed to regrow for two days before examination. […]

DRG neurons [3] = experiment: Axon elongation of cultured DRG neurons treated with inhibitor compounds; format: cell-based, mouse; conditions: for axon elongation in dissociated primary DRG neuron culture: Atglistatin 10 μM, KLH-45 10 μM (figure legend), vs DMSO vehicle; for axon regrowth / axon regeneration in DRG neuron culture: one day after compound treatment, A-922500 500 nM, pradigastat 1 μM, PF combination 10 μM each
Description: DRG primary culture and replating were performed as previously described. In brief, for primary culture, L4-L6 DRGs from 7-8 weeks wild-type mice of both genders were dissected and then digested in 0.5% collagenase for 1.5 h. After termination of digestion, DRGs were pipetted 20-30 times in a tube for complete dissociation. Neurobasal-A with B27 as a supplement was used as a medium for DRG culture. Virus was added at 1 day in vitro (DIV1) for genetic manipulation. […]
For replating DRG neuron culture, at DIV9-11 of primary DRG culture, cells were gently pipetted on culture dishes. Cells were flushed by 20-30 rounds of pipetting in each well of a 6-well plate. After all the cells were resuspended, they were replated onto a 24-well plate. Fixation and staining were performed 24 h after replating. Tuj1 staining was used to visualize axons and cell bodies of neurons. The lengths of the longest neurites from each DRG neuron were measured manually by NeuronJ in ImageJ. Average lengths of 10-20 neurites from 3 individual mice were used in each group.
In the final step of the glycerol phosphate pathway DGAT enzymes catalyze DGs into TGs. To assess the effect of blocking the DGAT enzyme, commercially available, DGAT1 inhibitors were used in culture. A-922500 (500 nM) and pradigastat (1 μM) were individually tested in a culture medium of DRG neurons. A combination of PF-06424439 (10 μM) and PF-046201101 (10 μM) was also tested in a culture medium of DRG neurons. […] Then, a KD experiment was performed by transfecting Dgat1 shRNA (shDgat1) targeting SEQ ID NO: 8, Dgat2 shRNA (shDgat2) targeting SEQ ID NO: 9 into DRG neurons. […] Because axotomy increases Lipin1 expression in RGCs, a study was conducted to determine whether DGAT enzymes were also regulated by axonal injury.

DRG neurons [4] = experiment: Lipid droplet formation in cultured DRG neurons (BODIPY staining); format: cell-based, mouse; conditions: cultured adult DRG neurons, three days, vs DMSO vehicle
Description: DRG primary culture and replating were performed as previously described. In brief, for primary culture, L4-L6 DRGs from 7-8 weeks wild-type mice of both genders were dissected and then digested in 0.5% collagenase for 1.5 h. After termination of digestion, DRGs were pipetted 20-30 times in a tube for complete dissociation. Neurobasal-A with B27 as a supplement was used as a medium for DRG culture. Virus was added at 1 day in vitro (DIV1) for genetic manipulation. Atglistatin (10 μM), KLH-45 (1 μM), paradigastat (1 μM) or A-922500 (500 nM) treatment was used for ATGL, DDHD2 or DGAT1 inhibition.
For BODIPY staining on cultured DRG neurons, cells were first fixed in 4% PFA for 10 min and permeabilized with 0.1% Triton X-100 in 4% NGS. After cells were blocked, the Tuj1 antibody was applied in blocking buffer and incubated at 4° C. overnight. Coverslips were then washed three times with PBS and incubated with secondary antibodies at room temperature for 2 h. Cells were finally incubated with 200 nM BODIPY (Sigma) in blocking buffer for 30 min before mounting.
Experiments were performed to manipulate TG lipases in vitro. In cultured adult DRG neurons with vehicle treatment, lipid droplets were barely detected (FIG. 4B), consistent with the notion that neurons constantly turn over TGs with minimum storage. […] Then, the function of TG lipases was examined in axon regeneration in vivo. […]

cortical neurons [5] = experiment: Lipid profile of cultured cortical neurons by UPLC-MS; format: cell-based, mouse
Description: as §1
Lipid extraction was performed using the Folch method. Cortical neurons were lysed in a 2:1 chloroform:methanol mixture. After the upper phase was siphoned, the solvent was dried by line blowing with nitrogen. Lipid extracts were analyzed using a Synapt G2 HDMS mass spectrometer coupled with an ACQUITY UPLC system (Waters, Milford, USA). The UPLC separation was carried out using a Charge Surface Hybrid column (particle size: 1.7 μm; length: 100 mm; i.d.: 2.1 mm). The mobile phase consisted of solvent A (0.1% formic acid in water, v/v) and solvent B (0.1% formic acid in acetonitrile, v/v), each with 10 mM ammonium acetate. The elution gradient conditions were as follows: 0 min, 40% B; 2 min, 43% B; 2-2.1 min, 50% B; 12 min, 54% B; 12.1 min, 70% B; 12.1-18 min, 99% B. The flow rate was 0.2 mL min^−1, and the injection volume was 2 μL. A two minutes post-run time was set to fully equilibrate the column. Column temperature and sample chamber temperature were set to 55° C. and 6° C., respectively. […]
Because PAP activity is critical for Lipin1-dependent axon growth, it was hypothesized that Lipin1 may control axon regrowth by regulating glycerolipid synthesis in neurons. […] Glycerolipid levels were directly measured after eliminating glial cells by adding cytosine arabinoside (AraC) to the culture. […] Lipid extraction of cortical neurons was analyzed by ultra-performance liquid chromatography-mass spectrometry (UPLC-MS) system. […]

[6] = after Dgat1 KD, compared to the control shRNA group

## shDgat2: Dgat2 shRNA targeting SEQ ID NO: 9 (GCTACTTCCGAGACTACTTT; target site or template, no part of the molecule)
Cortical neurons [1]
  PC content: increased
  TG level in neurons: decreased the TG level
Adult DRG neurons
  effect on axon regrowth / axon growth of DRG neurons: significantly boosted axon growth

## O=C(N(CCc1ccccc1)C1CCCCC1)n1ncc(-c2ccc(OC(F)(F)F)cc2)n1 [KLH-45]
[2]
  spontaneous sensory axon regeneration after sciatic nerve crush: modestly inhibited
DRG neurons [3]
  axon elongation in dissociated primary DRG neuron culture: significantly inhibited axon elongation
DRG neurons [4]
  TG storage in neurons (lipid droplet formation): dramatically increased TG storage

## CN(C)C(=O)Nc1cccc(-c2ccc(N(C)C)cc2)c1 [Atglistatin]
DRG neurons [3]
  axon elongation in dissociated primary DRG neuron culture: significantly inhibited axon elongation
DRG neurons [4]
  TG storage in neurons (lipid droplet formation): dramatically increased TG storage

## O=C(O)C[C@H]1CC[C@H](c2ccc(-c3ccc(Nc4ccc(C(F)(F)F)nc4)cn3)cc2)CC1 [pradigastat]
DRG neurons [3]
  axon regrowth / axon regeneration in DRG neuron culture: demonstrated axon regrowth

## shDgat1: Dgat1 shRNA targeting SEQ ID NO: 8 (GCCCTTCAAGGATATGGACT; the letters are possibly those of the target site)
Cortical neurons [1]
  PC content: increased
  TG level in neurons: decreased the TG level
Adult DRG neurons
  effect on axon regrowth / axon growth of DRG neurons: significantly boosted axon growth
Cortical neurons [5]; after Dgat1 KD vs control shRNA
  identified TG species levels: decreased
Cortical neurons [5]; [6]
  PC(29:1) increase: more than eightfold
  PC(36:2) increase: more than eightfold

## Lipin1 shRNA: short hairpin RNA against Lipin1, plasmid transfected into DRG neurons (CGGAACTCTGTAGACAGAAT)
Adult DRG neurons; shRNA plasmid transfected for three days, replated, fixed 24 h after replating, vs control shRNA
  axon elongation enhanced by: 20%

## O=C(Nc1ccccc1)Nc1ccc(-c2ccc(C(=O)[C@@H]3CCC[C@H]3C(=O)O)cc2)cc1 [A-922500]
DRG neurons [3]
  axon regrowth / axon regeneration in DRG neuron culture: demonstrated axon regrowth

Reference: patent publication US12016933B2, “Method for stimulating axonal regeneration” (The Hong Kong University of Science and Technology, priority 2020, dated 2024)
